“Also recorded” adds a separate entry of the source. One block for each molecule: values may come before it.
Key:
[1] = test system: F.Xa; details: substrate affinity; cited from earlier work
[2] = test system: bovine Factor Xa; assay: Inhibition of bovine Xa activity on chromogenic substrate; assay type: biochemical; details: result in words
Method: (§1) Regarding the methods, synthetic substrates having a chromogenic end group such as pNA (para- nitroanilide) are preferably used, enabling easy monitoring of the progress of the coagulation by spectrophotometer methods. […] The reactions were monitored at 405 nm in a spectrophotometer connected to a computer and the kinetic parameter were calculated from the appropriate extinction coefficients by a Jackson-Labanowski linear regression program. The measurements were carried out in disposable polystyrene cuvettes at pH of 7.8 and a temperature of 25° C.

[3] = test system: bovine thrombin; assay: Inhibition of bovine thrombin activity on chromogenic substrate; assay type: biochemical; details: result in words
Method: as §1

[4] = test system: bovine F.Xa; assay: Affinity binding to bovine F.Xa immobilized on Affi-Gel 10; details: leech saliva passed through column, pH 7.9
Method: The inhibitor/modulator of the present invention may be isolated from the saliva by adsorption on an Affi-Gel column on which bovine F.Xa is fixed and subsequent elution with acetic acid. Hirudin was not adsorbed on said gel. Affi-Gel 10 is used, which is a derivatized ross-linked agarose containing a 10-atom spacer arm esterified to N-hydroxysuccinimide. The capacity of this gel is 10 micromoles/ml.
1. Coupling. To 1ml washed Affi-Gel 10 in a mini-column were added 2ml of a dialyzed BXa solution (40 nmoles) in 0.05 M Hepes/0.1 M NaCl buffer pH 7.5. The column was shaken for 2 h at room temp. The supernatant was then run off the column, which was not allowed to dry. Ninety four percent of the BXa load was bound to the gel.
3. Affinity binding of XaM. Leech saliva (40 ml, 305 pmoles XaM) was adjusted to pH 7.9 by adding 1% v/v 1M Tris pH 8 and was passed through the column. Ninety two percent of the XaM was bound to the gel. Hirudin was not bound.

[5] = test system: bovine Factor Xa; details: literature (Tuszynski, Gasic and Gasic 1987); cited from earlier work

Molecule: N=C(N)NCCC[C@H](NC(=O)[C@@H]1CCCCN1C(=O)[C@H](N)Cc1ccccc1)C(=O)Nc1ccc([N+](=O)[O-])cc1 [S2238, D-Phe-Pipecolyl-L-Arg-pNa]
Km [1]: 46.9 µM

adsorption on Affi-Gel with fixed bovine F.Xa [4]: not adsorbed; also recorded: not bound
Molecule: hirudin
inhibition of bovine F.Xa [2]: does not inhibit bovine F.Xa
inhibition of thrombin [3]: inhibits thrombin

B1: antistasin (protein, UniProt P15358 18-136, looked up)
Antistasin: QGPFGPGCEEAGCPEGSACNIITDRCTCSGVRCRMHCPHGFQRSRYGCEFCKCRLEPMKATCDISECPEGMMCSRLTNKCDCKIDINCRKTCPNGLKRDKLGCEYCECRPKRKLIPRLS
remaining BXa activity at which the dose-response curve flattens out [5]: about 50%

From US5182113A, “Factor Xa inibitor from leech and pharmaceutical compositions containing same” (Bio-Technology General Corp., priority 1988, dated 1993)
